The results in this text go back to patent US12698507B2, “Methods and compositions for conferring and/or enhancing herbicide tolerance using protoporphyrinogen IX oxidase of various cyanobacteria or variant thereof” (FarmHannong Co., Ltd., priority 2019, dated 2026).

Test [1] deals with PPO-deficient BT3 E. coli (ΔPPO) transformed with CyPPO19 variant R89A+F360M (Thermosynechococcus elongatus PKUAC-SCTE542, SEQ ID NO: 1). As to the kind of experiment: Herbicide tolerance test in E. coli, CyPPO19 R89A+F360M. The format is cell-based. The conditions noted are these: LB agar, 0 to 2,000 μM herbicide, 37° C., 16-20 hours. An excerpt:
(§1) To enhance the PPO-inhibiting herbicide resistance of CyPPO19 and CyPPO18, PPO variant genes of the above example 2 were constructed. They were transformed to BT3 (ΔPPO) strain which is deficient of PPO activity and cultured in LB media with PPO-inhibiting herbicide, thereby examining whether growth of transformed BT3 was not inhibited.
(§2) BT3 competent cells were transformed with the pET303-CyPPO19 (wild type), pET303-CyPPO18 (wild type) plasmids, and those with a mutation(s) constructed (refer to example 2) via heat shock method, and were cultured in LB agar media containing ampicillin.
(§3) Single colony transformed with each CyPPO gene was cultured in 3 mL of LB broth (LPSS) containing ampicillin for more than 12 hours, and then was subcultured in LB broth until absorbance (OD600) reached 0.5 to 1. Then, it was diluted with LB broth to OD600=0.5. Again, the diluted solution was serially diluted 4 times by a factor of one tenth. […]
(§4) Then, 10 μL of each diluted solution of E. coli was dropped on the plate and cultured at 37° C. under dark for 16-20 hours. PPO-inhibiting herbicide resistance was evaluated with the extent of E. coli growth containing each gene was observed.
(§5) The extent of herbicide resistance was evaluated by the relative growth of variants to that of wild type, and listed in Tables 9 and 10 and FIGS. 3 to 32. […]

Test [2] concerns PPO-deficient BT3 E. coli (ΔPPO) transformed with CyPPO18 variant V305M+F360I (Thermosynechococcus vulcanus NIES-2134, SEQ ID NO: 3). The test is described as follows: Herbicide tolerance test in E. coli, CyPPO18 V305M+F360I. The format is cell-based. More on the design: key to the marks not given beside the values. The settings on record: LB agar, 0 to 2,000 μM herbicide, 37° C., 16-20 hours.
Excerpt: as §1, §2, §3, §4, §5

The target of test [3] is Thermosynechococcus elongatus PKUAC-SCTE542 protoporphyrinogen IX oxidase CyPPO19 (SEQ ID NO: 1) variant V165S (MBP fusion) (Thermosynechococcus sichuanensis, UniProt A0A7D6JSC1, V165S). The test is described as follows: biochemical. The settings on record: 50 μM protoporphyrinogen IX, pH 7.5, room temperature, 30 min, 10,000 means equivalent to or higher.
Test [4] concerns the target Thermosynechococcus vulcanus NIES-2134 protoporphyrinogen IX oxidase CyPPO18 (SEQ ID NO: 3) variant V165S (MBP fusion) (Thermosynechococcus vestitus, UniProt Q8DLV2, V165S). As to the kind of experiment: PPO enzyme inhibition assay (IC50 for herbicides), CyPPO18 V165S fused to MBP. The conditions noted are these: 50 μM protoporphyrinogen IX, pH 7.5, room temperature, 30 min. The format is biochemical.

Test [5] addresses Thermosynechococcus vulcanus NIES-2134 protoporphyrinogen IX oxidase CyPPO18 (SEQ ID NO: 3) variant A167C (MBP fusion) (Thermosynechococcus vestitus, UniProt Q8DLV2, A167C). As to the kind of experiment: PPO enzyme inhibition assay (IC50 for herbicides), CyPPO18 A167C fused to MBP. The format is biochemical. The settings on record: 50 μM protoporphyrinogen IX, pH 7.5, room temperature, 30 min.

Test [6] addresses Thermosynechococcus vulcanus NIES-2134 protoporphyrinogen IX oxidase CyPPO18 (SEQ ID NO: 3) variant V305M (MBP fusion) (Thermosynechococcus vestitus, UniProt Q8DLV2, V305M). The test is described as follows: PPO enzyme inhibition assay (IC50 for herbicides), CyPPO18 V305M fused to MBP. The settings on record: 50 μM protoporphyrinogen IX, pH 7.5, room temperature, 30 min. The format is biochemical.

Read-outs that look alike come from different tables or passages of the source.

Chain of Thermosynechococcus vulcanus NIES-2134 protoporphyrinogen IX oxidase CyPPO18 (SEQ ID NO: 3) variant A167C (MBP fusion) (Q8DLV2 entry or part of it A167C): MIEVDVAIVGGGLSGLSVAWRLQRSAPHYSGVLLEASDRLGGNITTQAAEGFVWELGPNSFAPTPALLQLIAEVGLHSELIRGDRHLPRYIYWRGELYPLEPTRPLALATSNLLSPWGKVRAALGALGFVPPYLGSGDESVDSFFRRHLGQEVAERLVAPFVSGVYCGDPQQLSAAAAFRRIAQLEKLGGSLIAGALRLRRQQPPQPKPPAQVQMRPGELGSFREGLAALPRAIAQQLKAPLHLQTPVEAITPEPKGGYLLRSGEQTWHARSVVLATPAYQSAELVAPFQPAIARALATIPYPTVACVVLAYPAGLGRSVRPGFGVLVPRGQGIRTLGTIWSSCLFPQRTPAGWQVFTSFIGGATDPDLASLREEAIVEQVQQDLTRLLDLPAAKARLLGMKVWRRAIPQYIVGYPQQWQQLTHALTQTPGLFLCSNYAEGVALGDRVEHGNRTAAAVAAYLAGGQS
Chain of Thermosynechococcus vulcanus NIES-2134 protoporphyrinogen IX oxidase CyPPO18 (SEQ ID NO: 3) variant V305M (MBP fusion) (Q8DLV2 entry or part of it V305M): as the sequence (Q8DLV2 entry or part of it A167C) above, with C167A, V305M counted along it
Chain of Thermosynechococcus vulcanus NIES-2134 protoporphyrinogen IX oxidase CyPPO18 (SEQ ID NO: 3) variant V165S (MBP fusion) (Q8DLV2 entry or part of it V165S): as the sequence (Q8DLV2 entry or part of it A167C) above, with V165S, C167A counted along it
Chain of Thermosynechococcus elongatus PKUAC-SCTE542 protoporphyrinogen IX oxidase CyPPO19 (SEQ ID NO: 1) variant V165S (MBP fusion) (A0A7D6JSC1 entry or part of it V165S): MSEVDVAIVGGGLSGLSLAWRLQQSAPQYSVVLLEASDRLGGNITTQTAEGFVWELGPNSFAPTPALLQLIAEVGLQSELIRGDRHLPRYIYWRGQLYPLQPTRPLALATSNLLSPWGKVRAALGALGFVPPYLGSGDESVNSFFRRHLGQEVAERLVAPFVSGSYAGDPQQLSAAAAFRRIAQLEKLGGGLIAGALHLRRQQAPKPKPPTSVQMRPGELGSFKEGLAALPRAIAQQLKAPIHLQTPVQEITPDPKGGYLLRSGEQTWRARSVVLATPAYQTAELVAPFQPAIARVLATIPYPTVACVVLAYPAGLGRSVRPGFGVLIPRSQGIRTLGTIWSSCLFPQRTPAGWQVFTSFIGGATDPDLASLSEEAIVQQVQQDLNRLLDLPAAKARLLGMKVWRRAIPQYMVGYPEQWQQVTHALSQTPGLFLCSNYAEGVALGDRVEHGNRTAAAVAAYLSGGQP

As for `CCOc1cc(Oc2ccc(C(F)(F)F)cc2Cl)ccc1[N+](=O)[O-]` [Oxyfluorfen], the “tolerance level (relative growth of variant to wild type)” value in test [1] is given as “+”; in test [2], “++”. Besides, the IC50 came to 1670 nM in test [3] (read-out: IC50), 1490 nM in test [4], 570 nM in test [5] and 355 nM in test [6].

As for `Cc1nn(-c2cc(CC(Cl)C(=O)O)c(Cl)cc2F)c(=O)n1C(F)F` (stereo not drawn) [Carfentrazone], the “tolerance level (relative growth of variant to wild type)” value in test [1] is given as “+”; in test [2], “++”. The half-inhibitory concentration (IC50) in test [3] was at least 10000 nM; in test [4], 2230 nM; in test [5] it was 1880 nM; in test [6] it was 1610 nM.
